Assay results taken from patent publication US7803940B2, “Heteromonocyclic compound or a salt thereof having strong antihypertensive action, insulin sensitizing activity and the like production thereof and use thereof for prophylaxis or treatment of cardiovascular diseases, metabolic diseases and/or central nervous system diseases” (Takeda Pharmaceutical Company Limited, priority 2006, dated 2010).
Where a name gives a salt, the structure may show the parent alone. Read-outs that look alike come from different tables or passages of the source.

Columns and labels:
human AT1 receptor = target: T1, human AT1 receptor (Homo sapiens, UniProt P30556); experiment: Binding assay using human AT1 receptor-expressing CHO-K1 cell membrane fraction ([125I]-angiotensin II); conditions: 22.5 pM [125I]-angiotensin II, 9 μg AT1 membrane, 1 hr room temperature; read-out: AT1 receptor binding inhibitory action (IC50 (nM))
T1 construct: expressed in transfected cells; host or cells: CHO-K1
T1 sequence (P30556 1-359): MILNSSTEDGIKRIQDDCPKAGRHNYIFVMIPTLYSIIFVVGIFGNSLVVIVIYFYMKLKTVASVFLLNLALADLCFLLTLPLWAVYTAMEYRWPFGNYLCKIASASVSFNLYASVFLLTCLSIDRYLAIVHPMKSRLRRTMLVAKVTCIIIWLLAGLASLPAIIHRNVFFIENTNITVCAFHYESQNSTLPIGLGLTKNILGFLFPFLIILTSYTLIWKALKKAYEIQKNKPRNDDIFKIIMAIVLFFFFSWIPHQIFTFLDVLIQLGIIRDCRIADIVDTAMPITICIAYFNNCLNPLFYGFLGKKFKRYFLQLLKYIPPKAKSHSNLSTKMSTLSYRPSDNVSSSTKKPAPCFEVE
Protocol: The membrane fraction for human AT1 receptor binding assay was prepared as follows. CHO-K1 cell capable of stable expression of human AT1 receptor was cultured, recovered, suspended in homogenize buffer (10 mM NaHCO3 (pH 7.4), 5 mM EDTA, 1×Complete EDTA free) [manufactured by Roche, Switzerland], and homogenized. The homogenate was centrifuged at low-speed (900×g, 10 min, 4° C.), and the supernatant was recovered and ultracentrifuged (90,000×g, 1 hr, 4° C.). The supernatant was discarded, and the pellets were resuspended in resuspension buffer (50 mM Tris (pH 7.4), 1 mM EDTA, 1×Complete EDTA free).
The binding assay was performed in the presence of 22.5 pM [^125I]-angiotensin II [manufactured by PerkinElmer, USA], 9 μg of AT1 membrane and test compound in 100 μL (total reaction volume) of reaction buffer (50 mM Tris (pH 7.4), 10 mM MgCl2 supplemented or not supplemented with 0.3 mg/mL fatty acid-free bovine serum albumin [manufactured by Wako Pure Chemical Industries, Ltd., Japan]). […] The filter was air-dried, and [^125I]-angiotensin II binding radioactivity was assayed with Top Count scintillation counter. Total binding was measured in the presence of 1% DMSO and nonspecific binding was measured in the presence of 1 μM CV-11974. […]

PPARγ = target: T2, PPARγ (Homo sapiens, UniProt P37231); experiment: Evaluation of PPARγ activating action (luciferase reporter, PPARγ:RXRα:4ERPP/CHO-K1 cells); assay type: cell-based; conditions: for activation at 1 µM: CHO-K1, 24 h, read-out: PPARγ activating action (activation % (10^−6 M))
T2 construct: expressed in transfected cells; host or cells: CHO-K1
T2 sequence (P37231 1-477 isoform P37231-2): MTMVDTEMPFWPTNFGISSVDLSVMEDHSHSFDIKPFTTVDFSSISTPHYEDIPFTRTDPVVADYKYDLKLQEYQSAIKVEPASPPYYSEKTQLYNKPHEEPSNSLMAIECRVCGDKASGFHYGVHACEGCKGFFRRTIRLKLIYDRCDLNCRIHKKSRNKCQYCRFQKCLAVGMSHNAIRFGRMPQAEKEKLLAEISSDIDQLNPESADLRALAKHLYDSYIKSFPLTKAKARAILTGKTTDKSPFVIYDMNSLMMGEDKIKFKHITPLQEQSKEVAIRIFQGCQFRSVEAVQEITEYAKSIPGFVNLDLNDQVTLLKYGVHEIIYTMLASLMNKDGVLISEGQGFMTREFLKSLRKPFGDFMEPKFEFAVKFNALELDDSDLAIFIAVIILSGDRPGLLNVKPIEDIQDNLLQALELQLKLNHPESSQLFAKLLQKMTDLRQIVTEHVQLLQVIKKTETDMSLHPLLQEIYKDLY
T2 sequence (P19793 1-462 partner): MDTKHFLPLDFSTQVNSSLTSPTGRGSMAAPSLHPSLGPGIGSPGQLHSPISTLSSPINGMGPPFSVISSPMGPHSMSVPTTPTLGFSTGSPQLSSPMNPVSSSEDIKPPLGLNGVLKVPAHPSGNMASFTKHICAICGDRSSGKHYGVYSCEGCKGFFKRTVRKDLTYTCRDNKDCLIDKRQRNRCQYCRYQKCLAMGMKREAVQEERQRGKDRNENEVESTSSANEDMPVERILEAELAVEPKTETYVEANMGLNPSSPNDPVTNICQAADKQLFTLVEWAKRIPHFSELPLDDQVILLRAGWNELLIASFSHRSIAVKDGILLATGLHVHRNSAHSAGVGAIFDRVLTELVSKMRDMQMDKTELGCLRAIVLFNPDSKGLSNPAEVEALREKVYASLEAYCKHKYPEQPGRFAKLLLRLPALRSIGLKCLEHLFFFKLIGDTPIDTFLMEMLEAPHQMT
Protocol: PPARγ:RXRα:4ERPP/CHO-K1 cells obtained in the following Reference Example 5 were cultured in F12 medium [manufactured by INVITROGEN, USA] containing 10% fetal bovine serum [manufactured by MOREGATE, Australia], seeded in a 96-well half area white plate [manufactured by Corning Coster Corporation, USA] at the density of 5×10^3 cells/well and cultured in a CO2 gas incubator at 37° C. overnight.
Then the medium was removed from the 96-well half area white plate, 45 μl of Ham's F12 medium containing 0.1% fatty acid-free bovine serum albumin (BSA) and 5 μl of test compound were added, and the cells were cultured in a CO2 gas incubator at 37° C. for 1 day. The medium was removed and 20 μl of PicaGene 7.5 [manufactured by TOYO INK MFG. CO., LTD., Japan] diluted 2-fold with HBSS (HANKS' BALANCED SALT SOLUTION) [manufactured by BIO WHITTAKER, USA] was added. After stirring, the luciferase activity was determined using 1420 ARVO Multilabel Counter [manufactured by PerkinElmer, USA].
The percent (%) was calculated from the luciferase activity of each test compound when the luciferase activity of the control compound (compound X: 5-[3-(4-{[2-(2-furyl)-5-methyl-1,3-oxazol-4-yl]methoxy}-3-methoxyphenyl)propyl]-1,3-oxazolidine-2,4-dione) (1 μM) was 100% and that of the test compound non-administration group was 0%.
A CHO-K1 cell cultured in a 150 cm^2 cell culture flask [manufactured by Corning Costar Corporation, USA] containing Ham's F12 medium [manufactured by INVITROGEN, USA] supplemented with 10% fetal bovine serum [manufactured by INVITROGEN, USA] was scraped by treating with 0.5 g/L trypsin-0.2 g/L EDTA (ethylenediaminetetraacetic acid) [manufactured by Life Technologies, Inc., USA], and then the cell was washed with PBS (Phosphate-buffered saline) [manufactured by INVITROGEN, USA], centrifuged (1000 rpm, 5 minutes) and suspended in PBS. Subsequently, DNA was introduced into the cell under the conditions shown below using GENE PULSER [manufactured by Bio-Rad Laboratories, USA].
Namely, to a cuvette having a 0.4 cm gap were added 8×10^6 cells and 10 μg of plasmid pVgRXR2-hPPARγ obtained in Reference Example 4 and 10 μg of reporter plasmid pGL3-4ERPP-TK neo obtained in Reference Example 3, which was subjected to electroporation at the voltage of 0.25 kV under the capacitance of 960 μF. Subsequently, the cell was transferred into a F12 medium containing 10% fetal bovine serum and cultured for 24 hours, and then the cell was scraped again and centrifuged, and then suspended in Ham's F12 medium containing 10% fetal bovine serum supplemented with 500 μg/ml of Geneticin [manufactured by INVITROGEN, USA] and 250 μg/ml of Zeocin [manufactured by INVITROGEN, USA]. The obtained suspension was diluted to the density of 1 cells/ml and inoculated in a 96-well plate [manufactured by Corning Costar Corporation, USA], which was cultured in a CO2 gas incubator at 37° C., whereby obtaining a Geneticin- and Zeocin-resistant transformant.
Subsequently, after the transformant cell line thus obtained was cultured in a 24-well plate [manufactured by Corning Costar Corporation, USA], a cell line in which the luciferase was expressed and induced, i.e., PPARγ:RXRα:4ERPP/CHO-K1 cell was selected by the addition of 10 μM pioglitazone hydrochloride.

[1] = test compound 10^−6 M, luciferase activity of control compound X (1 μM) = 100%, non-administration group = 0%

Compound	PPARγ activating action (activation % (10^−6 M)) (PPARγ; [1]) [%]	further results
CCCCc1nc(CC)n(CC(=O)C(C)(C)C)c(=O)c1Cc1ccc(-c2ccccc2-c2noc(O)n2)cc1 [Example 309, 6-butyl-3-(3,3-dimethyl-2-oxobutyl)-2-ethyl-5-{[2′-(5-oxo-4,5-dihydro-1,2,4-oxadiazol-3-yl)biphenyl-4-yl]methyl}pyrimidin-4(3H)-one potassium salt]	–	IC50 (human AT1 receptor): 1.6 nM; activation at 1 µM (PPARγ): 31.5%
CCCc1nc(CC)n(-c2ccc3c(c2)CC(C)O3)c(=O)c1Cc1ccc(-c2ccccc2-c2noc([O-])n2)cc1.[K+] (centres unmarked) [Example 312, 2-ethyl-3-(2-methyl-2,3-dihydro-1-benzofuran-5-yl)-5-{[2′-(5-oxo-4,5-dihydro-1,2,4-oxadiazol-3-yl)biphenyl-4-yl]methyl}-6-propylpyrimidin-4(3H)-one potassium salt]	50.3	–
CCCCc1nc(C2CC2)n(-c2ccccc2)c(=O)c1Cc1ccc(-c2ccccc2-c2noc([O-])n2)cc1.[K+] [Example 310, 6-butyl-2-cyclopropyl-5-{[2′-(5-oxo-4,5-dihydro-1,2,4-oxadiazol-3-yl)biphenyl-4-yl]methyl}-3-phenylpyrimidin-4(3H)-one potassium salt]	27.1	–
CCCc1nc(CC)n(-c2ccc3c(c2)CCO3)c(=O)c1Cc1ccc(-c2ccccc2-c2noc([O-])n2)cc1.[K+] [Example 311, 3-(2,3-dihydro-1-benzofuran-5-yl)-2-ethyl-5-{[2′-(5-oxo-4,5-dihydro-1,2,4-oxadiazol-3-yl)biphenyl-4-yl]methyl}-6-propylpyrimidin-4(3H)-one potassium salt]	38.1	–
CCCc1nc(C)c(Oc2ccc(OC)cc2)c(=O)n1Cc1ccc(-c2ccccc2-c2noc(O)n2)cc1 [Example 476, 5-(4-methoxyphenoxy)-6-methyl-3-{[2′-(5-oxo-4,5-dihydro-1,2,4-oxadiazol-3-yl)biphenyl-4-yl]methyl}-2-propylpyrimidin-4(3H)-one potassium salt]	18.5	–
CCCc1nc(CC)n(-c2ccc(OC)cc2)c(=O)c1Cc1ccc(-c2ccccc2-c2noc([O-])n2)cc1.[K+] [Example 313, 2-ethyl-3-(4-methoxyphenyl)-5-{[2′-(5-oxo-4,5-dihydro-1,2,4-oxadiazol-3-yl)biphenyl-4-yl]methyl}-6-propylpyrimidin-4(3H)-one potassium salt]	31.0	–
CCCc1nc(CC)c(C(O)C(C)C)c(=O)n1Cc1ccc(-c2ccccc2-c2noc(O)n2)cc1 (centres unmarked) [Example 473, 6-ethyl-5-(1-hydroxy-2-methylpropyl)-3-{[2′-(5-oxo-4,5-dihydro-1,2,4-oxadiazol-3-yl)biphenyl-4-yl]methyl}-2-propylpyrimidin-4(3H)-one potassium salt]	15.7	–
CCCCc1nc(CC)n(Cc2ccccc2)c(=O)c1Cc1ccc(-c2ccccc2-c2noc(=O)[nH]2)cc1 [Example 105, 3-benzyl-6-butyl-2-ethyl-5-{[2′-(5-oxo-4,5-dihydro-1,2,4-oxadiazol-3-yl)biphenyl-4-yl]methyl}pyrimidin-4(3H)-one]	64.1	–
CCCc1nc(CC)c(Oc2cccc(OC)c2)c(=O)n1Cc1ccc(-c2ccccc2-c2noc(O)n2)cc1 [Example 488, 6-ethyl-5-(3-methoxyphenoxy)-3-{[2′-(5-oxo-4,5-dihydro-1,2,4-oxadiazol-3-yl)biphenyl-4-yl]methyl}-2-propylpyrimidin-4(3H)-one potassium salt]	16.7	–
CCCc1nc(C(F)F)n(-c2ccc(OC)cc2)c(=O)c1Cc1ccc(-c2ccccc2-c2noc(=O)[nH]2)cc1 [Example 410, 2-(difluoromethyl)-3-(4-methoxyphenyl)-5-{[2′-(5-oxo-4,5-dihydro-1,2,4-oxadiazol-3-yl)biphenyl-4-yl]methyl}-6-propylpyrimidin-4(3H)-one]	–	activation at 1 µM (PPARγ; [1]): 19.5%
